This test deals with HBV rcDNA. As to the kind of experiment: HepDE19 assay with bDNA quantitation of HBV rcDNA. In kind it is cell-based, hepatitis B virus. On the procedure:
HepDE19 Assay with bDNA Quantitation of HBV rcDNA:
HepDE19 cell culture system is a HepG2 (human hepatocarcinoma) derived cell line that supports HBV DNA replication and cccDNA formation in a tetracycline (Tet)-regulated manner and produces HBV rcDNA and a detectable reporter molecule dependent on the production and maintenance of cccDNA (Guo, et al., 2007, J. Virol. 81:12472-12484).
HepDE19 (50,000 cells/well) were plated in 96-well collagen-coated tissue-culture treated microtiter plates in DMEM/F12 medium supplemented with 10% fetal bovine serum, 1% penicillin-streptomycin and 1 μg/mL tetracycline and incubated in a humidified incubator at 37° C. and 5% CO2 overnight. Next day, the cells were switched to fresh medium without tetracycline and incubated for 4 hours at 37° C. and 5% CO2. The cells were treated with fresh Tet-free medium with compounds at concentrations starting at 25 μM and a serial, ½ log, 8-point, titration series in duplicate. The final DMSO concentration in the assay was 0.5%. The plates were incubated for 7 days in a humidified incubator at 37° C. and 5% CO2. Following a 7 day-incubation, the level of rcDNA present in the inhibitor-treated wells was measured using a Quantigene 2.0 bDNA assay kit (Affymetrix, Santa Clara, Calif.) with HBV specific custom probe set and manufacturers instructions. Concurrently, the effect of compounds on cell viability was assessed using replicate plates, plated at a density of 5,000 cells/well and incubated for 4 days, to determine the ATP content as a measure of cell viability using the cell-titer glo reagent (CTG; Promega Corporation, Madison, Wis.) as per manufacturer's instructions. The plates were read using a Victor luminescence plate reader (PerkinElmer Model 1420 Multilabel counter) and the relative luminescence units (RLU) data generated from each well was calculated as % inhibition of the untreated control wells and analyzed using XL-Fit module in Microsoft Excel to determine EC50 and EC90 (bDNA) and CC50 (CTG) values using a 4-parameter curve fitting algorithm.
Representative compounds of the invention were tested for their abilities to inhibit formation of relaxed circular DNA (rcDNA) in a HepDE19 assay, as described elsewhere herein.

The mark [1] stands for this setting: HepDE19 cells, Tet-free medium, 7 day-incubation, rcDNA measured by Quantigene 2.0 bDNA assay, top concentration 25 μM; read-out: DE-19 bDNA EC50.
Setting [2] is: Hepatitis B virus, HepDE19, 168 h, HepDE19 cells, Tet-free medium, 7 day-incubation, rcDNA measured by Quantigene 2.0 bDNA assay, top concentration 25 μM; read-out: DE-19 bDNA EC50.

Where two headings read alike, the source gives them in different places.

As usually defined, the EC50 is the concentration at which the effect is half-maximal. With `Cn1cnc(COC(=O)NC2CCc3c2cn(C)c3C(=O)Nc2ccc(F)c(Cl)c2)n1` (single isomer, unassigned) [Compound 26, (1-Methyl-1H-1,2,4-triazol-3-yl)methyl (1-((3-chloro-4-fluorophenyl)carbamoyl)-2-methyl-2,4,5,6-tetrahydrocyclopenta[c]pyrrol-4-yl)carbamate], the half-maximal effective concentration (EC50) under setting [1] turned out to be 50 nM.

Consider `CCn1cc2c(c1C(=O)Nc1ccc(F)c(Cl)c1)CCC2NC(=O)OCc1ccn(C)n1` (single isomer, unassigned) [Compound 27, (1-Methyl-1H-pyrazol-3-yl)methyl (1-((3-chloro-4-fluorophenyl)carbamoyl)-2-ethyl-2,4,5,6-tetrahydrocyclopenta[c]pyrrol-4-yl)carbamate], for which the 50% effective concentration (EC50) under setting [1] is 1500 nM.

Regarding `CCn1cc2c(c1C(=O)Nc1ccc(F)c(Cl)c1)CCC2NC(=O)OCc1ccn(C)n1` (single isomer, unassigned) [Compound 28, (1-Methyl-1H-pyrazol-3-yl)methyl (1-((3-chloro-4-fluorophenyl)carbamoyl)-2-ethyl-2,4,5,6-tetrahydrocyclopenta[c]pyrrol-4-yl)carbamate], under setting [1], the EC50 came to 230 nM.

As to `COC(=O)NC1CCCc2c1cn(C)c2C(=O)Nc1ccc(F)c(Cl)c1` (single isomer, unassigned) [Compound 29, Methyl (1-((3-chloro-4-fluorophenyl)carbamoyl)-2-methyl-4,5,6,7-tetrahydro-2H-isoindol-4-yl)carbamate], the EC50 (read-out: DE-19 bDNA EC50; HepDE19 cells, Tet-free medium, 7 day-incubation, rcDNA measured by Quantigene 2.0 bDNA assay, top concentration 25 μM) turned out to be 470 nM.

For the compound `Cn1cc2c(c1C(=O)Nc1ccc(F)c(Cl)c1)CCCC2NS(=O)(=O)C1CC1` (single isomer, unassigned) [Compound 30, N-(3-Chloro-4-fluorophenyl)-4-(cyclopropanesulfonamido)-2-methyl-4,5,6,7-tetrahydro-2H-isoindole-1-carboxamide], under setting [1], the 50% effective concentration (EC50) was determined as 2100 nM.

Turning to `Cn1ccc(COC(=O)NC2CCCc3c2cn(C)c3C(=O)Nc2ccc(F)c(Cl)c2)n1` (single isomer, unassigned) [Compound 31, (1-Methyl-1H-pyrazol-3-yl)methyl (1-((3-chloro-4-fluorophenyl)carbamoyl)-2-methyl-4,5,6,7-tetrahydro-2H-isoindol-4-yl)carbamate], the EC50 under setting [2] amounted to 500 nM.

On to `Cn1cnc(COC(=O)NC2CCCc3c2cn(C)c3C(=O)Nc2ccc(F)c(Cl)c2)n1` (single isomer, unassigned) [Compound 33, (1-Methyl-1H-1,2,4-triazol-3-yl)methyl (1-((3-chloro-4-fluorophenyl)carbamoyl)-2-methyl-4,5,6,7-tetrahydro-2H-isoindol-4-yl)carbamate], for which the EC50 under setting [2] is 30 nM.

For the compound `Cn1cc2c(c1C(=O)Nc1ccc(F)c(Cl)c1)CCC2NC(=O)OCc1ncco1` (single isomer, unassigned) [Compound 34, Oxazol-2-ylmethyl (1-((3-chloro-4-fluorophenyl)carbamoyl)-2-methyl-2,4,5,6-tetrahydrocyclopenta[c]pyrrol-4-yl)carbamate], under setting [1], the EC50 worked out at 80 nM.

For the compound `Cn1cc2c(c1C(=O)Nc1ccc(F)c(Cl)c1)CCC2NC(=O)OCc1ncco1` (single isomer, unassigned) [Compound 35, Oxazol-2-ylmethyl (1-((3-chloro-4-fluorophenyl)carbamoyl)-2-methyl-2,4,5,6-tetrahydrocyclopenta[c]pyrrol-4-yl)carbamate], the EC50 under setting [1] is 1800 nM.

Take `Cn1cc2c(c1C(=O)Nc1ccc(F)c(Cl)c1)CCC2NC(=O)OCc1cnco1` (single isomer, unassigned) [Compound 36, Oxazol-5-ylmethyl (1-((3-chloro-4-fluorophenyl)carbamoyl)-2-methyl-2,4,5,6-tetrahydrocyclopenta[c]pyrrol-4-yl)carbamate]: the EC50 under setting [1] was 20 nM.

In the case of `Cn1cc2c(c1C(=O)Nc1ccc(F)c(Cl)c1)CCC2NC(=O)OCc1cnco1` (single isomer, unassigned) [Compound 37, Oxazol-5-ylmethyl (1-((3-chloro-4-fluorophenyl)carbamoyl)-2-methyl-2,4,5,6-tetrahydrocyclopenta[c]pyrrol-4-yl)carbamate], the half-maximal effective concentration (EC50) under setting [1] amounted to 2600 nM.

Values taken from patent US11566002B2, “Substituted tetrahydrocyclopenta[C]pyrroles, substituted dihydropyrrolizines, analogues thereof, and methods using same” (priority 2018, dated 2023).
